# Experiments:
# Type in all cases: ADME, organism-based
# [1] = Drug level in semen of healthy human at […] administered twice daily measured on day 5 by HPLC; conditions: male, read-out: Drug uptake
# [2] = Ratio of drug level in semen to blood in healthy human at […] administered twice daily measured on day 5 by HPLC; conditions: male
# [3] = Ratio of drug level in semen to blood in healthy human at […] administered twice daily measured after 2 to 4 hrs by HPLC; conditions: male
# [4] = system: Blood; assay: Drug level in blood of healthy human at […] administered twice daily measured after 2 to 4 hrs by HPLC; conditions: in vivo
# [5] = Drug level in blood of healthy human at […] administered twice daily measured on day 5 by HPLC; conditions: read-out: Drug uptake
# [6] = Drug level in semen of healthy human at […] administered twice daily measured 5 hrs post dosing by HPLC; conditions: male, read-out: Drug uptake
# [7] = Ratio of drug level in semen to blood in healthy human at […] administered twice daily measured 5 hrs post dosing by HPLC; conditions: male
# [8] = Drug level in semen of healthy human at […] administered twice daily measured after 2 to 4 hrs by HPLC; conditions: in vivo
compound,measurement,setting,value
Cc1nnc(C(=O)NC(C)(C)c2nc(C(=O)NCc3ccc(F)cc3)c(O)c(=O)n2C)o1 [RALTEGRAVIR],concentration at 5 day,[1],212 ng/mL
same,Kp at 5 day,[2],3.78
same,Kp,[3],1.62
same,Drug uptake,[4],651 ng/mL
same,concentration at 5 day,[5],51 ng/mL
same,concentration at 5 h,[6],345 ng/mL
same,Kp at 5 h,[7],1.42
same,Drug uptake,[8],953 ng/mL
